Several values for one entry are separate records, joined by “and”; a condition that tells them apart may be missing. Identical values can stand only once.
Key:
[1] = compared to untreated controls
Description: NSG mice were injected subcutaneously with 5 × 10^5 BE2-c cells in a 50:50 PBS/Matrigel® solution. […] Bone marrow was collected at necropsy for a CFU-GM assay to assess bone marrow toxicity.

[2] = tested on: MYCN, MCL-1, PARP, LC3I, LC3II, BRD-4, bcl-2 and BAX gene expression in BE-2c cells; assay: RNAseq gene expression analysis; assay type: cell-based; set-up: RNAseq expression value, MYCN gene / RNAseq expression value, MCL-1 gene / RNAseq expression value, LCII gene / RNAseq expression value, LCI gene / RNAseq expression value, BRD-4 gene / RNAseq expression value, Bcl-2 gene / RNAseq expression value, BAX gene: unit not given here; conditions: 18 h, TEM alone 1 μM
Description: Total RNA was extracted using the RNeasy Micro Kit (Qiagen, Germantown, MD). Nano Drop was used to measure RNA concentration and purity and integrity was evaluated using Agilent Bioanalyzer System (Agilent Technologies, Santa Clara, CA). RNA sequencing and library preparation was performed using Maestro TruSeq Application (Perkin Elmer, Waltham, MA). Parameters used were optimized for 50 bp single-end reads with 20 million reads per sample. […] Gene expression analysis are reported for those pathways where protein analysis was performed (MYCN, MCL-1, PARP, LC3I, LC3II, BRD-4, bcl-2, and BAX).

[3] = tested on: BE2-c subcutaneous tumors; assay: Anti-tumor activity in BE2-c tumor bearing NSG mice; assay type: in vivo; conditions: follow up study, dosing three times per week
Description: A follow up study of the combination integrated control groups and modified dosing of MP1 plus TEM to three times per week at the doses described above. […] Tumor measurements were performed daily and treatments began on the first day the tumor achieved 2 mm^3 in size.

[4] = tested on: OXPHOS (OCR) and glycolysis (ECAR) in BE-2c cells; assay: Metabolic flux analysis and cell energy phenotype (XFp Seahorse); assay type: cell-based; conditions: 18 h, metformin 5 mM
Description: Six wells of an XFp culture plate were seeded with 15,000 BE-2c cells/well in 80 μL DMEM with 10% FBS. […] The XFp Cell Energy Phenotype assay utilizes oligomycin as an inhibitor of ATP synthase and FCCP which is a mitochondrial uncoupling reagent. Oligomycin inhibits mitochondrial ATP production leading to a compensatory increase in glycolysis to meet energy demands. FCCP depolarizes the mitochondrial membrane driving the oxygen consumption rates higher as mitochondria restore polarization. The results were graphed on a grid indicating degree of aerobic/glycolytic metabolism and energetic/quiescent phenotypes.

SMILES	Bone marrow toxicity (CFU-GM assay) [1]	Change (fold change treatment over control), BAX gene [2]	Change (fold change treatment over control), BRD-4 gene [2]	Change (fold change treatment over control), Bcl-2 gene [2]	Change (fold change treatment over control), MCL-1 gene [2]	Change (fold change treatment over control), MYCN gene [2]	Change (fold change treatment over control), PARP1 gene [2]	RNAseq expression value, BAX gene ([2]; replicates #1-#3)	RNAseq expression value, BRD-4 gene ([2]; replicates #1-#3)	RNAseq expression value, Bcl-2 gene ([2]; replicates #1-#3)	RNAseq expression value, LCI gene ([2]; replicates #1-#3)	RNAseq expression value, LCII gene ([2]; replicates #1-#3)	RNAseq expression value, MCL-1 gene ([2]; replicates #1-#3)	RNAseq expression value, MYCN gene ([2]; replicates #1-#3)	RNAseq expression value, PARP1 gene ([2]; replicates #1-#3)	Complete responses [3]	Effect on OXPHOS and glycolysis [4]
CO[C@H]1C[C@@H]2CC[C@@H](C)[C@@](O)(O2)C(=O)C(=O)N2CCCC[C@H]2C(=O)O[C@H]([C@H](C)C[C@@H]2CC[C@@H](OC(=O)C(C)(CO)CO)[C@H](OC)C2)CC(=O)[C@H](C)/C=C(\C)[C@@H](O)[C@@H](OC)C(=O)[C@H](C)C[C@H](C)/C=C/C=C/C=C/1C [TEM, temsirolimus]	unaffected	−1.14	−1.06	1.45	−1.12	1.0	−1.2	42.7 and 37.3 and 40.6	70.4 and 71.4 and 72.7	49.2 and 52.0 and 47.7	5.1 and 4.4 (2×)	92.7 and 92.5 and 89.7	281 and 282 and 276	2264 and 2140 and 2232	580 and 617 and 599	no complete responses	
CN(C)C(=N)N=C(N)N [metformin]																	uncoupled OXPHOS metabolism without effects on glycolysis

— article PMC6712804 (BMC Cancer, 2019)
